From patent US8263610B2, “Substituted imidazolyl-5,6-dihydrobenzo[N]isoquinoline compounds” (ArQule, Inc., priority 2008, dated 2012) come the findings set out here.

Holding throughout (test): MTS assay, inhibition of cell growth
Holding throughout (format): cell-based
(In general: Tetrazolium assays rely on reduction of a dye to a coloured formazan, in cell work by metabolically active cells.)

One assay has as its system DLD-1 cells. The following applies: Homo sapiens, compound at 10 μM, 72 hours. Here is the method:
(§1) MDA-MB-231, DLD-1, Kato III NCI-H1299, PACA-2 cells, were maintained at 37° C., 5% CO2 in DMEM media supplemented with 10% fetal bovine serum, penicillin/streptomycin and fungizone (Invitrogen). Cells were seeded into 96-well tissue culture plates at 3000 per well and cultured at 37° C. for 18 hours. Test compounds were dissolved and diluted to 300× in DMSO then further diluted 1:40 in DMEM before addition to cells (1:7.5 dilution). Cells were incubated with test compounds for 72 hours followed by incubation with tetrazolium compound (3-(4,5-dimethylthiazol-2-yl)-5-(3-carboxymethoxyphenyl)-2-(4-sulfophenyl)-2H-tetrazolium, inner salt; MTS) and the electron coupling reagent, phenazine methosulfate (PMS) for 4 hours. […] The ability of compounds to inhibit cell growth in this assay is correlated with the reduction of dehydrogenase enzyme activity found in metabolically active cells. The measurement of the absorbance of the formazan was assessed using an ENVISION™ (Perkin Elmer) microplate reader at 492 nm.

The test system of the next assay is Kato III cells. The conditions noted are these: Homo sapiens, compound at 10 μM, 72 hours. The procedure: as §1
For a further assay, the system named is MDA-MB-231 cells. The conditions noted are these: Homo sapiens, compound at 10 μM, 72 hours. Here is the method:
as §1

The subject of a further assay is NCI-H1299 cells. The conditions noted are these: Homo sapiens, compound at 10 μM, 72 hours. Here is the method: as §1
A further assay has as its system PACA-2 cells. The conditions noted are these: compound at 10 μM, 72 hours. Here is the method: as §1

For the compound `COc1ccc(S(=O)(=O)N2CCc3c(cnc4[nH]ncc34)C2)cc1OC` [7-[(3,4-dimethoxyphenyl)sulfonyl]-6,7,8,9-tetrahydro-3H-pyrazolo[3,4-c][2,7]napthyridine], the inhibition at 10 µM in the assay with DLD-1 cells, in the assay with Kato III cells, in the assay on MDA-MB-231 cells, in the assay with NCI-H1299 cells and in the assay with PACA-2 cells was 75 to 100% each time.
As for `COc1ccc(CN2CCN(C(=O)N3CCc4c(cnc5[nH]ncc45)C3)CC2)cc1` [7-{[4-(4-methoxybenzyl)piperazin-1-yl]carbonyl}-6,7,8,9-tetrahydro-3H-pyrazolo[3,4-c][2,7]naphthyridine], the inhibition – broadly, the change of the read-out against control, counted positive when it falls – at 10 µM in the assay on DLD-1 cells was 75 to 100%; in the assay with Kato III cells it was 75 to 100%; with MDA-MB-231 cells, 75 to 100%; with NCI-H1299 cells, less than 24%; in the assay on PACA-2 cells it was 75 to 100%.
For `Clc1ccccc1CN1CCN(c2ncc3c(n2)CCc2cnc4[nH]ncc4c2-3)CC1` [9-[4-(2-chlorobenzyl)piperazin-1-yl]-6,7-dihydro-3H-pyrazolo[4′3′:5,6]pyrido[4,3-f]quinazoline], the inhibition at 10 µM with DLD-1 cells, in the assay with Kato III cells, with MDA-MB-231 cells, in the assay with NCI-H1299 cells and in the assay on PACA-2 cells was 75 to 100% each time.
For `CN(C)CCNC(C(=O)N1CCc2c(cnc3[nH]nc(-c4ccccc4)c23)C1)c1ccccc1` (centres unmarked) [N,N-dimethyl-N′-[2-oxo-1-phenyl-2-(1-phenyl-3,6,8,9-tetrahydro-7H-pyrazolo[3,4-c][2,7]napthyridin-7-yl)ethyl]ethane-1,2-diamine], the inhibition at 10 µM in the assay on DLD-1 cells, with Kato III cells, in the assay on MDA-MB-231 cells, in the assay on NCI-H1299 cells and with PACA-2 cells was 75 to 100% throughout.
On to `O=C(NCCc1cccc(Cl)c1)c1cccc(NC(=O)N2CCc3c(cnc4[nH]ncc34)C2)c1` [N-(3-{[2-(3-chlorophenyl)ethyl]carbamoyl}phenyl)-3,6,8,9-tetrahydro-7H-pyrazolo[3,4-c][2,7]naphthyridine-7-carboxamide], for which the inhibition at 10 µM lay within 75 to 100% with DLD-1 cells; 75 to 100% in the assay on Kato III cells; 75 to 100% with MDA-MB-231 cells; 25 to 49% in the assay on NCI-H1299 cells; 75 to 100% with PACA-2 cells.
`c1nc2[nH]ncc2c2c1CCc1nc(NCC3CCCCCC3)ncc1-2` [N-(cycloheptylmethyl)-6,7-dihydro-3H-pyrazolo[4′,3′:5,6]pyrido[4,3-f]quinazolin-9-amine]: the inhibition at 10 µM in the assay with DLD-1 cells, in the assay with Kato III cells, in the assay on MDA-MB-231 cells, in the assay with NCI-H1299 cells and in the assay with PACA-2 cells was 75 to 100% throughout.
For the compound `O=C(NCC1CCCCC1)N1CCc2c(cnc3[nH]ncc23)C1` [N-(cyclohexylmethyl)-3,6,8,9-tetrahydro-7H-pyrazolo[3,4-c][2,7]naphthyridine-7-carboxamide], the inhibition at 10 µM in the assay on DLD-1 cells, in the assay with Kato III cells, in the assay with MDA-MB-231 cells, with NCI-H1299 cells and with PACA-2 cells was 75 to 100% throughout.
Regarding `FC(F)(F)c1cccc(CNc2ncc3c(n2)CCc2cnc4[nH]ncc4c2-3)c1` [N-[3-(trifluoromethyl)benzyl]-6,7-dihydro-3H-pyrazolo[4′,3′:5,6]pyrido[4,3-f]quinazolin-9-amine], the inhibition at 10 µM with DLD-1 cells, with Kato III cells, in the assay with MDA-MB-231 cells, with NCI-H1299 cells and with PACA-2 cells was 75 to 100% throughout.
For `CN(C)c1ccc(NC(=O)N2CCc3c(cnc4[nH]ncc34)C2)cc1` [N-[4-(dimethylamino)phenyl]-3,6,8,9-tetrahydro-7H-pyrazolo[3,4-c][2,7]naphthyridine-7-carboxamide], the inhibition at 10 µM with DLD-1 cells, in the assay with Kato III cells, with MDA-MB-231 cells, in the assay with NCI-H1299 cells and with PACA-2 cells was 75 to 100% each time.
In the case of `O=C(Nc1ccccc1)N1CCc2c(cnc3[nH]nc(-c4cccc(C(F)(F)F)c4)c23)C1` [N-phenyl-1-[3-(trifluoromethyl)phenyl]-3,6,8,9-tetrahydro-7H-pyrazolo[3,4-c][2,7]naphthyridine-7-carboxamide], the inhibition at 10 µM in the assay on DLD-1 cells, in the assay with Kato III cells, with MDA-MB-231 cells, in the assay on NCI-H1299 cells and in the assay with PACA-2 cells was 75 to 100% throughout.
Regarding `CC(C)(C)NC1CCc2c(cnc3[nH]ncc23)C1` (centres unmarked) [N-tert-butyl-6,7,8,9-tetrahydro-3H-pyrazolo[3,4-c]isoquinolin-7-amine], the inhibition at 10 µM in the assay on DLD-1 cells, with Kato III cells, in the assay on MDA-MB-231 cells, with NCI-H1299 cells and with PACA-2 cells was 75 to 100% each time.
As for `O=C(NCCN1CCOCC1)c1cccc(NC(=O)N2CCc3c(cnc4[nH]ncc34)C2)c1` [N-{3-[(2-morpholin-4-ylethyl)carbamoyl]phenyl}-3,6,8,9-tetrahydro-7H-pyrazolo[3,4-c][2,7]napthyridine-7-carboxamide], the inhibition at 10 µM with DLD-1 cells, in the assay on Kato III cells, in the assay with MDA-MB-231 cells, in the assay on NCI-H1299 cells and in the assay on PACA-2 cells was 75 to 100% in each case.
Consider `Fc1ccc(C2Cc3cnc4[nH]ncc4c3-c3ccccc32)cc1` (centres unmarked) [drawing 558, 7-(4-fluorophenyl)-6,7-dihydro-3H-benzo[f]pyrazolo[3,4-c]isoquinoline], for which the inhibition at 10 µM in the assay with DLD-1 cells was 75 to 100%; in the assay on Kato III cells it was 50 to 74%; with MDA-MB-231 cells, 75 to 100%; in the assay with NCI-H1299 cells, 25 to 49%; with PACA-2 cells, 75 to 100%.
With `O=S(=O)(NC1CCc2c(cnc3[nH]ncc23)C1)c1ccccc1` (centres unmarked) [drawing 563, N-(6,7,8,9-tetrahydro-3H-pyrazolo[3,4-c]isoquinolin-7-yl)benzenesulfonamide], the inhibition at 10 µM in the assay on DLD-1 cells lay in the range of 75 to 100%; in the assay on Kato III cells, 75 to 100%; in the assay on MDA-MB-231 cells it was 75 to 100%; with NCI-H1299 cells, 25 to 49%; in the assay with PACA-2 cells, 75 to 100%.
For the compound `CC(C)(C)OC(=O)N1CCc2c(cnc3[nH]ncc23)C1` [drawing 579, tert-butyl 3,6,8,9-tetrahydro-7H-pyrazolo[3,4-c][2,7]naphthyridine-7-carboxylate], the inhibition at 10 µM with DLD-1 cells, in the assay on Kato III cells, with MDA-MB-231 cells, in the assay on NCI-H1299 cells and in the assay on PACA-2 cells was 75 to 100% each time.
`Cc1nc(-c2cccc(NC(=O)N3CCc4c(cnc5[nH]nc(Br)c45)C3)c2)cs1` [drawing 580, 1-bromo-N-[3-(2-methyl-1,3-thiazol-4-yl)phenyl]-3,6,8,9-tetrahydro-7H-pyrazolo[3,4-c][2,7]naphthyridine-7-carboxamide]: the inhibition at 10 µM is 75 to 100% in the assay with DLD-1 cells; 75 to 100% in the assay with Kato III cells; less than 24% in the assay on MDA-MB-231 cells; 50 to 74% with NCI-H1299 cells; 25 to 49% with PACA-2 cells.
